Laboratory results taken from patent publication US20040121965A1, “Method of treating resistant tumors” (Wyeth Holdings Corporation, priority 2002, published 2004).
Like-named read-outs stand apart in the source and are kept apart here.

Legend:
KB-3-1 = assay: Cell survival assay (SRB), KB-3-1; type: cell-based, human; conditions: Homo sapiens
Summary of the method: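 Growth inhibition (IC50) is derived from SRB-measured protein content after a 3-day, duplicate exposure to serially diluted compound.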

KB-8-5 (MDR1+) = assay: Cell survival assay (SRB), KB-8-5 (MDR1+); conditions: for IC50: Homo sapiens
KB-V1 (MDR1++) = assay: Cell survival assay (SRB), KB-V1 (MDR1++); conditions: for IC50: Homo sapiens
[1] = MDR1, read-out: In vitro IC50 (nM) KB85
[2] = read-out: In vitro IC50 (nM) KBV1
[3] = KB 3-1, KB-3-1 cells (paclitaxel-sensitive parent), read-out: In vitro IC50 (nM) KB-3-1

Structure (SMILES)	IC50 (KB-3-1; KB-3-1 cells (paclitaxel-sensitive parent), read-out: In vitro IC50 (nM) KB-3-1) [nM]	IC50 (KB-8-5 (MDR1+); [1]) [nM]	Ratio KB85/KB (KB-8-5 (MDR1+); ratio of IC50 in KB85 to IC50 in KB-3-1)	IC50 (KB-V1 (MDR1++); [2]) [nM]	Ratio KBV1/KB (KB-V1 (MDR1++); ratio of IC50 in KBV1 to IC50 in KB-3-1)	IC50 (KB-3-1; [3]) [nM]	Ratio KB85/KB (KB-8-5 (MDR1+))	Ratio KBV1/KB (KB-V1 (MDR1++))	IC50 (KB-3-1; KB 3-1, read-out: In vitro IC50 (nM) KB-3-1) [nM]	IC50 (KB-3-1; KB 3-1, KB-3-1 parental, Table 3, read-out: KB-3-1 IC50, nM (N)) [nM]	RR, relative resistance (KB-8-5 (MDR1+))	IC50 (KB-8-5 (MDR1+); MDR1, read-out: KB-8-5 (MDR1+) IC50, nM (N)) [nM]	RR, relative resistance (KB-V1 (MDR1++))	IC50 (KB-V1 (MDR1++); read-out: KB-V1 (MDR1++) IC50, nM (N)) [nM]
CC(C)C[C@H](N)C(=O)N[C@H](C(=O)N[C@H](CC(C)C(=O)O)C(C)C)C(C)(C)C (stereo partly drawn) [Example 138, (4R)4-[((2S)-2-{[(2S)-2-amino4-methylpentanoyl]amino}-3,3-dimethylbutanoyl)amino]-2,5-dimethylhexanoic Acid]	692	1510	2.2	≥ 3000	4.3	–	–	–	–	–	–	–	–	–
CN[C@H](C(=O)N[C@H](C(=O)N(C)[C@H](/C=C(\C)C(=O)O)C(C)C)C(C)(C)C)C(C)(C)C [Example 140, N,3-dimethyl-L-valyl-N^1-[(1S,2E)-3-carboxy-1-isopropyl-2-butenyl]-N^1,3-dimethyl-L-valinamide]	–	181	–	≥ 3000	–	114	1.6	26.4	–	–	–	–	–	–
CN[C@H](C(=O)N[C@H](C(=O)N(C)[C@H](/C=C(\C)C(=O)O)C(C)C)C(C)(C)C)C(C)(C)c1c[nH]c2ccccc12 [Example 141, N,β,β-trimethyl-L-tryptophyl-N^1-[(1S,2E)-3-carboxy-1-isopropyl-2-butenyl]-N^1,3-dimethyl-L-valinamide]	–	1.65	–	96.9	–	0.695	2.4	139.4	–	–	–	–	–	–
CN[C@H](C(=O)N[C@H](C(=O)N(C)[C@H](/C=C(\C)C(=O)N[C@@H](CCSC)C(=O)O)C(C)C)C(C)(C)C)C(C)(C)c1ccccc1 [Example 145, N,β,β-trimethyl-L-phenylalanyl-N 1-((1S,2E)4-{[(1S)-1-carboxy-3-(methylthio)propyl]amino}-1-isopropyl-3-methyl-4-oxobut-2-enyl)-N 1,3-dimethyl-L-valinamide]	–	1600	–	> 3000	–	131	12.2	22.9	–	–	–	–	–	–
CN[C@H](C(=O)N[C@H](C(=O)N(C)[C@H](/C=C(\C)C(=O)O)C(C)C)C(C)(C)C)C(C)(C)c1ccc(/C=C/c2ccccc2)cc1 [Example 146, N,β,β-trimethyl-4-[(E)-2-phenylvinyl]-L-phenylalanyl-N^1-[(1S,2E)-3-carboxy-1-isopropylbut-2-enyl]-N^1,3-dimethyl-L-valinamide]	–	3.1	–	70	–	1.3	2.4	53.8	–	–	–	–	–	–
CN[C@@H](C(=O)N[C@H](C(=O)N(C)[C@H](/C=C(\C)C(=O)O)C(C)C)C(C)(C)C)C(C)(C)c1ccc(/C=C/c2ccccc2)cc1 [Example 147, N,β,β-trimethyl4-[(E)-2-phenylvinyl]-D-phenylalanyl-N^1-[(1S,2E)-3-carboxy-1-isopropylbut-2-enyl]-N^1,3-dimethyl-L-valinamide]	–	20	–	620	–	11.6	1.7	53.4	–	–	–	–	–	–
CN[C@H](C(=O)N[C@@H](C(=O)N(C)[C@H](/C=C(\C)C(=O)O)C(C)C)C(C)(C)F)C(C)(C)c1ccccc1 [Example 148, N,β,β-trimethyl-L-phenylalanyl-N^1-[(1S,2E)-3-carboxy-1-isopropylbut-2′enyl]-3-fluoro-N^1-methyl-D-valinamide]	–	193	–	> 3000	–	88	2.2	34.1	–	–	–	–	–	–
CN[C@H](C(=O)N[C@H](C(=O)N(C)[C@H](/C=C(\C)C(=O)O)C(C)C)C(C)(C)F)C(C)(C)c1ccccc1 [Example 149, N,β,β-trimethyl-L-phenylalanyl-N^1-[(1S,2E)-3-carboxy-1-isopropylbut-2-enyl]-3-fluoro-N^1-methyl-L-valinamide]	–	3.5	–	117	–	1.6	2.2	–	–	–	–	–	–	–
CN[C@H](C(=O)N[C@H](C(=O)N(C)[C@H](/C=C(\C)C(=O)O)C(C)C)C(C)(C)C)C(C)(C)SCc1ccc(OC)cc1 [Example 150, 3-[(4-methoxybenzyl)thio]-N-methyl-L-valyl-N^1-[(1S,2E)-3-carboxy-1-isopropylbut-2-enyl]-N^1,3-dimethyl-L-valinamide]	–	11.3	–	190	–	5.2	2.1	36.5	–	–	–	–	–	–
C/C(=C\[C@H](C(C)C)N(C)C(=O)[C@@H](NC(=O)[C@@H](N1CCCC1)C(C)(C)c1ccccc1)C(C)(C)C)C(=O)O [Example 152, (2E,4S)-2,5-dimethyl-4-(methyl{3-methyl-N-[(2S)-3-methyl-3-phenyl-2-pyrrolidin-1-ylbutanoyl]-L-valyl}amino)hex-2-enoic Acid]	–	158	–	> 3000	–	75	2.1	40	–	–	–	–	–	–
C/C(=C\[C@H](C(C)C)N(C)C(=O)[C@@H](NC(=O)[C@@H](NCCO)C(C)(C)c1ccccc1)C(C)(C)C)C(=O)O [Example 153, N-(2-hydroxyethyl)-β,β-dimethyl-L-phenylalanyl-N^1-[(1S,2E)-3-carboxy-1-isopropylbut-2-enyl]-N^1,3-dimethyl-L-valinamide]	–	616	–	> 3000	–	183	3.4	16.4	–	–	–	–	–	–
CN[C@H](C(=O)N[C@H](C(=O)N(C)[C@H](/C=C(\C)C(=O)O)C(C)C)C(C)(C)C)[C@H](C)c1ccccc1 [Example 154, (βR)-N,β-dimethyl-L-phenylalanyl-N^1-[(1S,2E)-3-carboxy-1-isopropylbut-2-enyl]-N^1,3-dimethyl-L-valinamide]	–	584	–	> 3000	–	438	1.3	6.8	–	–	–	–	–	–
CN[C@H](C(=O)N[C@H](C(=O)N(C)[C@H](/C=C(\C)C(=O)O)C(C)C)C(C)(C)C)C(C)(C)c1cccc(C(C)=O)c1 [Example 155, 3-acetyl-N,β,β-trimethyl-L-phenylalanyl-N^1-[(1S,2E)-3-carboxy-1-isopropylbut-2-enyl]-N^1,3-dimethyl-L-valinamide]	–	5.8	–	370	–	1.8	3.2	206	–	–	–	–	–	–
CN[C@H](C(=O)N[C@H](C(=O)N(C)[C@H](/C=C(\C)C(=O)O)C(C)C)C(C)(C)O)C(C)(C)c1ccccc1 [Example 156, N,β,β-trimethyl-L-phenylalanyl-N^1-[(1S,2E)-3-carboxy-1-isopropylbut-2-enyl]-3-hydroxy-N^1-methyl-L-valinamide]	–	95	–	> 3000	–	58	1.6	51.7	–	–	–	–	–	–
CN[C@H](C(=O)N[C@H](C(=O)N(C)[C@@H](/C=C(\C)C(=O)O)C(C)C)C(C)(C)C)C(C)(C)c1ccccc1 [Example 157, N,β,β-trimethyl-L-phenylalanyl-N^1-[(1R,2E)-3-carboxy-1-isopropylbut-2-enyl]-N^1,3-dimethyl-L-valinamide]	–	1650	–	> 3000	–	–	2.7	5.0	605	–	–	–	–	–
CN[C@H](C(=O)N[C@H](C(=O)N(C)[C@H](/C=C(\C)C(=O)O)C(C)C)C(C)(C)C)C(C)(C)c1cn(C)c2ccccc12 [Hemiasterlin, hemiasterlin, reference compound]	–	–	–	–	–	–	–	–	–	0.319 ± 0.095	3.2	1	239	76.1
CCOC(=O)/C(C)=C/[C@H](C(C)C)N(C)C(=O)[C@@H](NC(=O)[C@@H](NC)C(C)(C)C1CCCCC1)C(C)(C)C [Reference Example 100, 3-Cyclohexyl-N-methyl-L-valyl-N^1-[(1S,2E)-4-ethoxy-1-isopropyl-3-methyl-4-oxo-2-butenyl]-N^1,3-dimethyl-L-valinamide]	–	602	–	1950	–	229	2.6	8.5	–	–	–	–	–	–
